Data taken from ChEMBL document CHEMBL3352541, “1-Phenylsulfinyl-3-(pyridin-3-yl)naphthalen-2-ols: a new class of potent and selective aldosterone synthase inhibitors” (Eur J Med Chem, 2015).

Experiments:
[1] = biological target: T1, Cytochrome P450 11B1, mitochondrial (Homo sapiens, UniProt P15538)
T1 sequence (P15538 whole entry): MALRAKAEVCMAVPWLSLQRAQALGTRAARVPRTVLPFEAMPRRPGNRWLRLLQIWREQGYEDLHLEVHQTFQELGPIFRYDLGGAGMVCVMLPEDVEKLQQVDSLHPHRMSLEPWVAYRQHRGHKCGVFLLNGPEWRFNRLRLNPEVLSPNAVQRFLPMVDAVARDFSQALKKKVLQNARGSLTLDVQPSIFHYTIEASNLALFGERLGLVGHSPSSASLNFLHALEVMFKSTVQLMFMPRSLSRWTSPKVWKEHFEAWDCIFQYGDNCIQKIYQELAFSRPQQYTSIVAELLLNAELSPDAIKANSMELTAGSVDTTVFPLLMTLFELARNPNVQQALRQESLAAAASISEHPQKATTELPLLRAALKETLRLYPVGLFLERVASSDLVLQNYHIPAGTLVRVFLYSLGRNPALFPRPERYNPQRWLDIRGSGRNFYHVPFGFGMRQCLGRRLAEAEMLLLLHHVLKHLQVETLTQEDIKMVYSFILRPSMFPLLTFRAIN
Description: Inhibition of human CYP11B1 expressed in hamster V79MZ cells using [3H]-11-deoxycorticosterone as substrate after 1 hr by HPLC analysis

V79MZ = assay: Selectivity ratio of IC50 for human CYP11B1 expressed in hamster V79MZ cells to IC50 for human CYP11B2 expressed in hamster V79MZ cells; assay type: cell-based
CYP19 (aromatase) = biological target: T2, CYP19 (aromatase) (Homo sapiens, UniProt P11511); assay: Inhibition of human recombinant CYP19 using [1beta3H]androstenedione as substrate at 500 nM; settings: recombinant human CYP19, probe [1beta3H]androstenedione
T2 sequence (P11511 whole entry): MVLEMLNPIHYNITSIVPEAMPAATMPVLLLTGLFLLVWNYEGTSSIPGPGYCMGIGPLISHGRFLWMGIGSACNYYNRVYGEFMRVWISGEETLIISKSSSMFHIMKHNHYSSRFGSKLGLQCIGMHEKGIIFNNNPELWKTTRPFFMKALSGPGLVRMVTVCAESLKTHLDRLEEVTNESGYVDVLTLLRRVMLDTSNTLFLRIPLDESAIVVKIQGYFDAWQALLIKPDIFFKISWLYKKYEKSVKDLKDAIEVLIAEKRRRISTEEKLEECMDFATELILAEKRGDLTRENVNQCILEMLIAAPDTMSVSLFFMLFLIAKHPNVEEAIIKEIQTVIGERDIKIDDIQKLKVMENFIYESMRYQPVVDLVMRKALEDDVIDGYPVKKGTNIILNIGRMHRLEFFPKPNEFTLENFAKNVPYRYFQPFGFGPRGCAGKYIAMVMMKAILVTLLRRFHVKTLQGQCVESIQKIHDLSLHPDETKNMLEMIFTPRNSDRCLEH

[2] = biological target: T3, Cytochrome P450 11B2, mitochondrial (Homo sapiens, UniProt P19099)
T3 sequence (P19099 whole entry): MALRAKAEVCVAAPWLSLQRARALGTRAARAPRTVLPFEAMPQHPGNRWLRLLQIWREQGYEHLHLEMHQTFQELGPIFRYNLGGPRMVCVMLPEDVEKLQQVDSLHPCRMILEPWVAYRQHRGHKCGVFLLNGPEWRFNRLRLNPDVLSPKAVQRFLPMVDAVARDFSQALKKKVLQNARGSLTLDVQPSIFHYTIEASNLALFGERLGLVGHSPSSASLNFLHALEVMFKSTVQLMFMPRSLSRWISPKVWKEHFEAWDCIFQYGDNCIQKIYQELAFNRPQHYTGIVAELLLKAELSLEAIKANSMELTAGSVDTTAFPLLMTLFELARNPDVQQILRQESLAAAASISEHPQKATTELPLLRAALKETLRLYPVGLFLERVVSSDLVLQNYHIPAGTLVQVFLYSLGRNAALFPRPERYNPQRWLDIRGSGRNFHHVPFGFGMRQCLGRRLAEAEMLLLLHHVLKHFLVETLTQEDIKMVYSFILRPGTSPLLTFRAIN
Description: Inhibition of human CYP11B2 expressed in hamster V79MZ cells using [3H]-11-deoxycorticosterone as substrate after 1 hr by HPLC analysis

[3] = biological target: T3, Cytochrome P450 11B2, mitochondrial; assay type: cell-based; settings: V79MZ, 1 h
CYP17 = biological target: T4, CYP17 (Homo sapiens, UniProt P05093); assay: Inhibition of human recombinant CYP17 expressed in Escherichia coli using progesterone as substrate at 2 uM; settings: probe progesterone
T4 sequence (P05093 whole entry): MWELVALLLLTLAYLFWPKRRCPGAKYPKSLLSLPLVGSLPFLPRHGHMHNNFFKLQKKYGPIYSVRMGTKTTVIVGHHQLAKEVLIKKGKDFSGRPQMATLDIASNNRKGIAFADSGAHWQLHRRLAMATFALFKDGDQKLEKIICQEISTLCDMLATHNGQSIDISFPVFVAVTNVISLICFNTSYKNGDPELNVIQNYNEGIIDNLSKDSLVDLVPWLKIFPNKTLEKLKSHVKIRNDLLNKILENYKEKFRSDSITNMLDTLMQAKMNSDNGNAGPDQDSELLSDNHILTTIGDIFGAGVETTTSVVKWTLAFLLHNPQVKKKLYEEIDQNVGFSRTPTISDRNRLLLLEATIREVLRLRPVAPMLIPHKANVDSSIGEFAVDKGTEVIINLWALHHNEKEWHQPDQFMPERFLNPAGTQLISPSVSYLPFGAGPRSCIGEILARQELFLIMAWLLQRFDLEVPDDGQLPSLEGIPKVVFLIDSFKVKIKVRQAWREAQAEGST

Structure (SMILES)	IC50 [1] [nM]	Ratio IC50 (V79MZ)	inhibition at 0.5 µM (CYP19 (aromatase)) [%]	IC50 [2] [nM]	inhibition [3] [%]	inhibition at 2 µM (CYP17) [%]
[O-][S+](c1ccccc1)c1c(O)c(-c2cccnc2)cc2ccccc12 (stereo unspecified)	6710	203	< 5	33	85	< 5
[O-][S+](c1ccccc1C(F)(F)F)c1c(O)c(-c2cccnc2)cc2ccccc12 (stereo unspecified)	5080	96	< 5	53	86	< 5
c1ccc(Sc2cc(-c3cccnc3)cc3ccccc23)cc1					15	
[O-][S+](c1ccc(Cl)c(Cl)c1)c1c(O)c(-c2cccnc2)cc2ccccc12 (stereo unspecified)	8330	253	< 5	33	90	< 5
[O-][S+](c1cccc(C(F)(F)F)c1)c1c(O)c(-c2cccnc2)cc2ccccc12 (stereo unspecified)	6670	155	< 5	43	88	< 5
COc1ccccc1[S+]([O-])c1c(O)c(-c2cccnc2)cc2ccccc12 (stereo unspecified)	1100	17	< 5	64	86	< 5
[O-][S+](c1ccc(Cl)cc1)c1c(O)c(-c2cccnc2)cc2ccccc12 (stereo unspecified)	8950	407	< 5	22	84	< 5
[O-][S+](c1ccccc1)c1cc(-c2cccnc2)cc2ccccc12 (stereo unspecified)					33	
[O-][S+](c1cc(Cl)cc(Cl)c1)c1c(O)c(-c2cccnc2)cc2ccccc12 (stereo unspecified)	4720	100	< 5	47	87	< 5
[O-][S+](c1ccc(OC(F)(F)F)cc1)c1c(O)c(-c2cccnc2)cc2ccccc12 (stereo unspecified)	7430	232	< 5	32	88	< 5
[O-][S+](c1cccc(Cl)c1)c1c(O)c(-c2cccnc2)cc2ccccc12 (stereo unspecified)	4800	80	< 5	60	90	< 5
O=S(=O)(c1ccccc1)c1cc2ccccc2cc1-c1cccnc1					16	
[O-][S+](c1ccc(C(F)(F)F)cc1)c1c(O)c(-c2cccnc2)cc2ccccc12 (stereo unspecified)	6190	248	< 5	25	81	< 5
Oc1c(-c2cccnc2)cc2ccccc2c1Sc1ccccc1					22	
[O-][S+](c1cccs1)c1c(O)c(-c2cccnc2)cc2ccccc12 (stereo unspecified)	6160	32	< 5	192	79	< 5
[O-][S+](c1ccccc1Cl)c1c(O)c(-c2cccnc2)cc2ccccc12 (stereo unspecified)	4490	204	< 5	22	90	< 5
COc1cccc(Sc2c(O)c(-c3cccnc3)cc3ccccc23)c1					20	
[O-][S+](c1ccccc1OC(F)(F)F)c1c(O)c(-c2cccnc2)cc2ccccc12 (stereo unspecified)	4710	84	< 5	56	77	< 5
COc1ccccc1Sc1c(O)c(-c2cccnc2)cc2ccccc12					18	
COc1ccc([S+]([O-])c2c(O)c(-c3cccnc3)cc3ccccc23)cc1 (stereo unspecified)	4200	87	< 5	48	80	< 5
[O-][S+](c1ccc(F)cc1)c1c(O)c(-c2cccnc2)cc2ccccc12 (stereo unspecified)	5550	168	< 5	33	84	< 5
[O-][S+](c1ccc(F)c(Cl)c1)c1c(O)c(-c2cccnc2)cc2ccccc12 (stereo unspecified)	6530	123	< 5	53	91	< 5
[O-][S+](c1cccc(F)c1)c1c(O)c(-c2cccnc2)cc2ccccc12 (stereo unspecified)	6550	168	< 5	39	85	< 5
N#Cc1cccc([S+]([O-])c2c(O)c(-c3cccnc3)cc3ccccc23)c1 (stereo unspecified)	8550	186	< 5	46	84	< 5
COc1ccc(Sc2c(O)c(-c3cccnc3)cc3ccccc23)cc1					22	
N#Cc1ccc([S+]([O-])c2c(O)c(-c3cccnc3)cc3ccccc23)cc1 (stereo unspecified)					47	
